23 compounds from ChEMBL document CHEMBL1155096, “A regiospecific synthesis of a series of 1-sulfonyl azepinoindoles as potent 5-HT6 ligands” (Bioorg Med Chem Lett, 2008) can be followed below.

Test [1] concerns the target T1, 5-hydroxytryptamine receptor 6 (Homo sapiens, UniProt P50406). Description: Displacement of [3H]-LSD from cloned human 5HT6 receptor expressed in HeLa cells. The test is classed as cell-based.
Test [2] deals with T1, 5-hydroxytryptamine receptor 6. Description: Antagonist activity at cloned human 5HT6 receptor expressed in HeLa cells assessed as production of cAMP. The format is functional, cell-based.
In test [3] the target is T2, 5-hydroxytryptamine receptor 2C (Homo sapiens, UniProt P28335).
T2 sequence (P28335 whole entry): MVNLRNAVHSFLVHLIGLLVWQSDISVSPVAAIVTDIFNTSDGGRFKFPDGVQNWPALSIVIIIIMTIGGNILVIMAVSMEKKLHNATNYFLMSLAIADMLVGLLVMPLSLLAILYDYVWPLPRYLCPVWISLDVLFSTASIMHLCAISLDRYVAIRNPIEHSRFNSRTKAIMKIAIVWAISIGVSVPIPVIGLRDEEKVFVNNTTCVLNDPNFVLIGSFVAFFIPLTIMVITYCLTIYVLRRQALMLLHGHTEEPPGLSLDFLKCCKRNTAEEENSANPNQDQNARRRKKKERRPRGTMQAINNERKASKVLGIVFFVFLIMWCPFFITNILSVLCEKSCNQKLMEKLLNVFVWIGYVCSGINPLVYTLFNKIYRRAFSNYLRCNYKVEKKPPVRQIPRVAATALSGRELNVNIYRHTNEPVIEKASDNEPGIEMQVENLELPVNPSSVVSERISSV
As to the kind of experiment: Inhibition of 5HT2C.

Molecules are shown by their SMILES. pIC50, pKi: −log10 of the molar value. The source made the active and inactive calls. The rule behind the calls is not given here.

T1 sequence (P50406 whole entry): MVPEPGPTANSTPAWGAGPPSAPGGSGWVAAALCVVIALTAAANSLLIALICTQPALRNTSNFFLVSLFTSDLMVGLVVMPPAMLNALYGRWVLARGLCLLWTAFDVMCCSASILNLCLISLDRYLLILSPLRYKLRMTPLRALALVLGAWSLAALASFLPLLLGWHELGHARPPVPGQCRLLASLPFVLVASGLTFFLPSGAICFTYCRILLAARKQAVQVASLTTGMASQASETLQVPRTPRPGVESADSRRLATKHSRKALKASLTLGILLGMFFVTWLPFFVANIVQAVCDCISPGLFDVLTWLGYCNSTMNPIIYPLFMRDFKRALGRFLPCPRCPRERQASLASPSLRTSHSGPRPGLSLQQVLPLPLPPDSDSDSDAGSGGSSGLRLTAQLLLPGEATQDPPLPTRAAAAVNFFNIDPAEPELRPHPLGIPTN

On to `O=S(=O)(c1ccc(F)cc1)n1c2c(c3ccccc31)CCNCC2`, for which the negative logarithm of the Ki (pKi) in test [1] is 7.64. The outcome in test [2] was Active.
In turn, `Cc1cccc(S(=O)(=O)n2c3c(c4ccccc42)CCNCC3)c1` showed a pKi in test [1] of 7.17. Further, the result in test [2] was Active.
The matching figures for `COc1cccc(S(=O)(=O)n2c3c(c4ccccc42)CCN(CCc2ccccc2)CC3)c1`: 6.30 and “Active”.
Regarding `O=S(=O)(c1ccc(Cl)cc1)n1c2c(c3ccccc31)CCNCC2`, in test [1], the pKi was 7.74. The outcome in test [2] was Active.
The matching figures for `O=S(=O)(c1cccc(F)c1)n1c2c(c3ccccc31)CCNCC2`: 7.48 and “Active”.
`O=S(=O)(c1cccc(C(F)(F)F)c1)n1c2c(c3ccccc31)CCNCC2`: the pKi in test [1] is 7.05. Moreover, the outcome in test [2] was Active.
For the compound `COc1cccc(S(=O)(=O)n2c3c(c4ccccc42)CCN(C(C)C)CC3)c1`, in test [1], the pKi is 7.07. For the same compound, the outcome in test [2] was Active.
`O=S(=O)(c1ccccc1Cl)n1c2c(c3ccccc31)CCNCC2`: in test [1], the pKi is 7.72. For the same compound, the result in test [2] was Active.
The matching figures for `CCCN1CCc2c(n(S(=O)(=O)c3cccc(OC)c3)c3ccccc23)CC1`: 6.91 and “Active”.
Consider `Cc1ccc(S(=O)(=O)n2c3c(c4ccccc42)CCNCC3)cc1`, for which the negative logarithm of the Ki (pKi) in test [1] was 7.54. For the same compound, the outcome in test [2] was Active.
The matching figures for `O=S(=O)(c1ccc(C(F)(F)F)cc1)n1c2c(c3ccccc31)CCNCC2`: 7.34 and “Active”.
The matching figures for `CCN1CCc2c(n(S(=O)(=O)c3cccc(OC)c3)c3ccccc23)CC1`: 7.30 and “Active”.
Consider `COc1ccccc1S(=O)(=O)n1c2c(c3ccccc31)CCNCC2`, for which the pKi in test [1] is 7.72; in test [3], 7.85. The pIC50 in test [2] was 6.79.
Regarding `O=S(=O)(c1cccc(Cl)c1)n1c2c(c3ccccc31)CCNCC2`, the pKi in test [1] is 7.39. Further, the result in test [2] was Active.
The matching figures for `CCN1CCc2c(n(S(=O)(=O)c3ccccc3)c3ccccc23)CC1`: 7.92 and “Active”.
The like results for `COc1cccc(S(=O)(=O)n2c3c(c4ccccc42)CCNCC3)c1` were, in that order, 7.92 and “Active”.
Compound `COc1cccc(S(=O)(=O)n2c3c(c4ccccc42)CCN(C2CCCC2)CC3)c1` had a pKi in test [1] of 6.49. Further, the result in test [2] was Active.
The matching figures for `COc1cccc(S(=O)(=O)n2c3c(c4ccccc42)CCN(C)CC3)c1`: 7.72 and “Active”.
In turn, `COc1ccc(S(=O)(=O)n2c3c(c4ccccc42)CCNCC3)cc1` gave a pKi in test [1] of 7.48. The outcome in test [2] was Active.
In test [1], `COc1cccc(S(=O)(=O)n2c3c(c4ccccc42)CCN(C2CCCCC2)CC3)c1` gave a pKi of 6.60. The result in test [2] was Active.
In turn, `O=S(=O)(c1ccccc1)n1c2c(c3ccccc31)CCNCC2` gave a pKi in test [1] of 6.71. In test [2], the outcome was Active.
With `O=S(=O)(c1ccc2c(Cl)cccc2c1)n1c2c(c3ccccc31)CCNCC2`, the negative logarithm of the Ki (pKi) in test [1] was 7.62. Also, the result in test [2] was Active.
In turn, `COc1cccc(S(=O)(=O)n2c3c(c4ccccc42)CCN(Cc2ccccc2)CC3)c1` gave a pKi in test [1] of 6.50. Also, the outcome in test [2] was Active.
